Measurements as given in patent US4847254A, “CNS affecting 5-oxy-3-aminomethyl-dihydro-benzofurans and benzothiophenes” (H. Lundbeck A/S, priority 1987, dated 1989).

Key:
DA-autoreceptors = experiment: Inhibition of spontaneous locomotor activity (motility inhibition) in rats; type: in vivo, rat (Wistar); conditions: doses calculated as the free amine
DA-receptor = experiment: Contralateral circling in rats with unilateral 6-hydroxy-DA (6-OHDA) lesions; type: in vivo, rat (Wistar); conditions: 6-OHDA-lesioned rats, doses calculated as the free amine
Protocol: Furthermore, the potency of the drug to induce contralateral circling behaviour in 6-hydroxy-DA-lesioned rats was determined. The specificity of this receptor resembles that of the […] DA receptors mediating motility inhibition.
The experiments were made according to published methods, using rats of the Wistar strain.
Therefore, also the ability of a test compound to induce contralateral circling in rats with unilateral 6-hydroxy-DA lesions was evaluated (loc cit.).

[1] = test system: postsynaptic DA-receptors; experiment: Reversal of locomotor depression (hypomotility) in reserpine plus alpha-methyl-p-tyrosine pretreated rats; type: in vivo, rat (Wistar)
[2] = test system: postsynaptic DA-receptors; conditions: reversal of locomotor depression in DA-depleted rats; statement in words; cited from earlier work
[3] = test system: presynaptic DA-receptors (DA-autoreceptors); conditions: cited from earlier work
DA receptors = experiment: DA stimulating properties / effect at pre- and postsynaptic DA receptors (general statement); type: in vivo; conditions: statement in words

Compound	Motility Inh. rats (sc) ED50 (DA-autoreceptors) [µmol/kg]	6-OHDA Contr. Circle. rats (sc) ED50 (DA-receptor) [µmol/kg]	Reserpin α-Mt Rev. rats (sc) ED50 [1] [µmol/kg]	effect in reserpine plus alpha-methyl-p-tyrosine model [2]	clinical success at low doses ([3]; low doses, patients with schizophrenia and tardive dyskinesias)	selectivity of action at DA autoreceptors vs postsynaptic DA receptors ([3]; postsynaptic DA receptors stimulated by slightly higher doses)	DA stimulating properties (DA receptors)	Reserpin α-Mt Rev. rats (sc) % at 5 μmol/kg ([1]; 5 μmol/kg) [%]
CCCN1CCC[C@@H](c2cccc(O)c2)C1 [(--)-3-PPP, reference compound]	4.2 to 11	0.77	> 67	without effect				
CN1CCc2cccc3c2[C@H]1Cc1ccc(O)c(O)c1-3 [Apomorphine, apomorphine, reference compound]	0.64	0.06	0.27		used with some success	no selective action at DA autoreceptors		
CCCN(CCC)CC1CCc2ccccc21 (stereo not drawn) [Lu 21-091, N,N-Dipropyl-1-indanmethylamine]	> 62	> 62					without any DA stimulating properties	
CCN(CC)CC1COc2ccc(O)cc21 (stereo not drawn) [Lu 24-088, 5-Hydroxy-2,3-dihydro-N,N-diethyl-3-benzofuranmethylamine]	1.7	1.2						13
CCCN(CCC)CC1CSc2ccc(O)cc21 (stereo not drawn) [Lu 24-100, 5-Hydroxy-2,3-dihydroxy-N,N-dipropyl-3-benzothiophenmethylamine]	3.0	4.6	20					
CCCN(CCO)CC1COc2ccc(O)cc21 (stereo not drawn) [Lu 24-102, 5-Hydroxy-2,3-dihydro-N-(2-hydroxyethyl)-N-propyl-3-benzofuranmethylamine]	5.4	2.1	19					
CCCN(C)CC1COc2ccc(O)cc21 (stereo not drawn) [Lu 24-103, 5-Hydroxy-2,3-dihydro-N-methyl-N-propyl-3-benzofuranmethylamine]	4.5	1.2	290					
CCCN(CCc1cccs1)CC1COc2ccc(O)cc21 (stereo not drawn) [Lu 24-155, 5-Hydroxy-2,3-dihydro-N-propyl-N-(2-thienyl-2-ethyl)-3-benzofuranmethylamine]	7.0	1.2	28					
CCCN(C)CC1CCc2ccc(O)cc21 (stereo not drawn) [Lu 25-009, 6-Hydroxy-N-methyl-N-propyl-1-indanmethylamine]	0.65	0.82	66					
